# Experiments:
# plasma lipoperoxidation [1] = assay: In vitro plasma lipoperoxidation inhibitory activity (malondialdehyde production); format: biochemical, Wister rats; conditions: rat heparinized plasma, test compound final concentration 10^-5M, copper sulfate, malondialdehyde production vs control
# Protocol: Under ether anesthesia, blood was taken from male Wister rats weighing 160-190 g that had been fasted for 16 hours, and heparinized plasma was separated by conventional method. DMSO (10 μl) or a test compound (final concentration 10^−5M) dissolved in DMSO (test compound solution 10 μl) was added to plasma (1.0 ml), and the mixture was incubated at 37° C. for 5 minutes.
# ACAT = ACAT inhibitory activity (cholesteryl oleate production by small intestine mucosal microsomes); format: biochemical, Japanese white rabbits; conditions: rabbit small intestine mucosal microsomes, [1-14C] oleoyl CoA, 37° C. 7 minutes, vs control; test concentration not given
# serum total cholesterol = assay: Serum total cholesterol reducing effect in rats on high cholesterol feed; format: in vivo; conditions: male Wister rats, vs control
# Protocol: Mile Wister rats weighing 180-200 g were bred under free access to a high cholesterol feed [added with cholesterol (1%), cholic acid (0.5%) and coconut oil (10%), Clea Japan, Inc.] for 3 days, during which period a test compound (3 mg/kg and 10 mg/kg) suspended in 5% gum arabic solution was forcibly administered once a day orally for 3 days. Only 5% gum arabic solution was administered to control animals. After final administration, the test animals were fasted and blood was taken 5 hours later. The serum total cholesterol level was determined using a commercially available assay lit (cholesterol-CII-Test Wako, Wako Pure Chemical Industries, Ltd.).
# [2] = Solubility in buffer pH 6.8; conditions: for Solubility: buffer pH 6.8, shaken 1 hr at 25° C., HPLC; for solubility at 1 h: buffer pH 6.8, 25 °C, pH 6.8, aqueous buffer, thermodynamic from solid
# Protocol: A pulverized test compound (10 mg) was added to buffer (1 ml, pH 6.8), and the mixture was shaken for 1 br at 25° C.
# plasma lipoperoxidation [3] = assay: Ex vivo plasma lipoperoxidation inhibitory activity after oral administration; format: in vivo; conditions: male Wister rats, plasma taken 1 hour after administration
# Protocol: Under ether anesthesia, blood was taken from male Wister rats weighing 160-190 g that had been fasted for 16 hours, and heparinized plasma was separated by conventional method.
# Only 5% gum arabic solution was administered to control animals. At 1 hour after administration, blood was taken under ether anesthesia and heparinized plasma was separated by conventional method. The plasma (1.0 ml) was processed in the same manner as in Experimental Example 3 and the amount of produced malondialdehyde was determined.
# [4] = Oral administration, plasma concentration in Wister rats; conditions: 30 mg/kg orally, fasted male Wister rats, sampled 0.5-6 hours
# Protocol: (§1) At 0.5, 1, 2, 4 and 6 hours after administration, blood was taken and heparinized plasma was separated by conventional method.
# [5] = Oral administration, plasma concentration in SD rats; conditions: 30 mg/kg orally, fasted male SD rats, sampled 0.5-6 hours
# Protocol: as §1
# [6] = 3 mg/kg/day orally once a day for 3 days
# [7] = 10 mg/kg/day orally once a day for 3 days
SMILES,Inhibition (%) of plasma lipoperoxidation (plasma lipoperoxidation [1]),ACAT inhibition (%) (ACAT),Reduction (%) of serum total cholesterol (serum total cholesterol; [6]),Reduction (%) of serum total cholesterol (serum total cholesterol; [7]),also measured
"CCCCCCCCN1CC(CCC(=O)O)c2c(C)cc(C)c(NC(=O)C(C)(C)C)c21 (stereo not shown) [Example 11, N-[(1-octyl-3-(2-carboxyethyl)-4,6-dimethylindolin-7-yl)]-2,2-dimethylpropanamide]",44.5%,,,,
"CCCCCCCCN1CCCc2c(C)c(CC(=O)O)c(C)c(NC(=O)C(C)(C)C)c21 [Example 125, N-(1-octyl-6-carboxymethyl-5,7-dimethyl-1,2,3,4-tetrahydroquinolin-8-yl)-2,2-dimethylpropanamide]",48.0%,93.0%,30.2%,47.9%,
CCCCCCN1CCc2c(C)c(CC(=O)O)c(C)c(NC(=O)C(C)(C)C)c21 [Example 18],,,,,Solubility [2]: 7300 µg/mL
CCCCSCCCN1CCc2c(C)c(CC(=O)O)c(C)c(NC(=O)C(C)(C)C)c21 [Example 122],,92.0%,88.2%,50.0%,
"CCCCCCCCN1CCc2cc(C(=O)O)c(C)c(NC(=O)C(C)(C)C)c21 [Example 155, N-(1-octyl-5carboxy-6-methylindolin-7-yl)-2,2-dimethylpropanamide]",47.7%,,55.2%,58.5%,
"CC(C)(Sc1cc(C(C)(C)C)c(O)c(C(C)(C)C)c1)Sc1cc(C(C)(C)C)c(O)c(C(C)(C)C)c1 [Probucol, 4,4-isopropylidenedithiobis(2,6-di-t-butylphenol), reference compound]",,,,,Inhibition (%) of plasma lipoperoxidation (plasma lipoperoxidation [3]; 100 mg/kg orally): 15.4%
CCCCCCCCN1CCc2cc(CC(=O)O)c(C)c(NC(=O)C(C)(C)C)c21 [Example 116],45.5%,92.0%,26.5%,50.9%,
CCCCCCCCN1CCc2cc(CO)c(C)c(NC(=O)C(C)(C)C)c21 [Example 76],51.7%,94.7%,,,
"Cc1cc(C)c(NC(=O)N(Cc2ccc3c(c2)Cc2ccccc2-3)C2CCCCCC2)c(C)c1 [YM-750, 1-cycloheptyl-1-[(2-fluorenyl)methyl]-3-(2,4,6-trimethyl-phenyl) urea, reference compound]",,92.0%,37.7%,46.4%,solubility at 1 h [2]: < 10 µg/mL
CCCCCCCCN1CCc2cc(CC(=O)O)c(C)c(NC(=O)C(C)(C)C)c21 [Example 71],48.1%,,26.5%,52.3%,Solubility [2]: 100 µg/mL
CCCCCCCCN1CCc2cc(CN(C)C)c(C)c(NC(=O)C(C)(C)C)c21 [Example 81],47.1%,,31.7%,53.8%,
CCCCCCCCCN1CCc2c(C)c(CC(=O)O)c(C)c(NC(=O)C(C)(C)C)c21 [Example 36],,,,,Highest concentration in plasma [4]: 2.2 µg/mL; Highest concentration in plasma [5]: 12.2 µg/mL; Solubility [2]: 4200 µg/mL
"CCCCCCCCN1CCc2c(C)c(CO)c(C)c(NC(=O)C(C)(C)C)c21 [Example 1, N-(1-octyl-5-hydroxymethyl-4,6-dimethylindolin-7-yl)-2,2-dimethylpropanamide]",51.7%,99.2%,52.8%,57.1%,
"CCCCCCCCN1CCc2c(C)c(CC(=O)OCC)c(C)c(NC(=O)C(C)(C)C)c21 [Example 3, N-(1-octyl-5-ethoxycarbonylmethyl-4,6-dimethylindolin-7-yl)-2,2-dimethylpropanamide]",49.2%,92.5%,54.2%,61.2%,
"CCCCCCCCN1CCc2c(C)c(CCC(=O)O)c(C)c(NC(=O)C(C)(C)C)c21 [Example 120, N-(1-octyl-5-carboxyethyl-4,6-dimethylindolin-7-yl)-2,2-dimethylpropanamide]",,92.3%,45.8%,44.6%,
CCCCSCCCCCCN1CCc2c(C)c(CC(=O)O)c(C)c(NC(=O)C(C)(C)C)c21 [Example 121],41.6%,92.5%,87.8%,48.1%,
CCCCCCCCN1CCc2c(C)c(C(=O)O)c(C)c(NC(=O)C(C)(C)C)c21 [Example 159],48.3%,,53.8%,57.5%,
"CCCCCCCCN1CCc2c(C)c(CC(=O)O)c(C)c(NC(=O)C(C)(C)C)c21 [Example 4, N-(1-octyl-5-carboxymethyl-4,6-dimethylindolin-7-yl)-2,2-dimethylpropanamide]",51.2%,,58.8%,57.5%,Highest concentration in plasma [4]: 1.4 µg/mL; Highest concentration in plasma [5]: 13.6 µg/mL; Inhibition (%) of plasma lipoperoxidation (plasma lipoperoxidation [3]; 10 mg/kg orally): 39.0%; solubility at 1 h [2]: 6900 µg/mL

# Reference: patent publication USRE38970E1, “Indolyl or indolinyl derivatives and medicinal use thereof as ACAT or lipid peroxidation inhibitors” (Kyoto Pharmaceutical Industries, Ltd., priority 1995, dated 2006)
